Values joined by “and” are separate entries in the source; they are usually repeats but may differ in a detail not shown here. Identical values can stand only once.
Key:
Type in all cases: cell-based, human
[1] = test system: A549 cells; experiment: MTT cell viability assay, A549; details: for IC50: Homo sapiens, A549, MTT, 48 h, mean ± SD, n = 3; for A549 Selectivity Index (SI): SI = IC50 (HEK 293)/IC50 (A549)
Protocol: (§1) Cell viability assay was performed on the human lung cancer (A549) (ATCC CCL-185), human breast cancer (MCF-7) (ATCC-HTB-22), cervical cancer (HeLa) (ATCC-CCL-2), and human embryonic kidney 293 (HEK293) (ATCC-CRL-1573) cell lines, which were purchased from Deutsche Sammlung von Mikroorganismen und Zellkulturen (DSMZ, Braunschweig, Germany). The cells were maintained in Dulbecco’s modified Eagle’s medium (DMEM), supplemented with 10% fetal bovine serum (FBS), 2 mM L-glutamine, 100 U/mL penicillin, and 100 mg/L streptomycin (Biochrom AG, Berlin, Germany) at 37 °C in a humidified atmosphere of 5% CO2.
(§2) The cytotoxic effect was determined by the MTT (3-(4,5-dimethyl-2-thiazolyl)-2,5-diphenyl-2H-tetrazolium bromide) cell viability assay. Cells were seeded at an initial concentration of 1 × 10^5 cells/mL in 96-well microplates. Cells were then treated with different concentrations (0.5, 5, 10, 25, 50, 100 and 200 µM) of the novel synthesized compounds for 48 h. After the incubation period, the formed formazan crystals were dissolved in dimethyl sulfoxide (DMSO), and the optical density (OD) of the compounds was measured at 570 nm using a spectrophotometer (BMG Labtech, Ortenberg, Germany). Cytotoxicity was expressed as an increase in the mean percentage of cytotoxicity relative to the unexposed control ± standard deviation (SD). […] Control values were set at 0% cytotoxicity. IC50 was calculated by fitting the data to a sigmoidal curve using a four-parameter logistic model and was presented as an average of three independent measurements. […] Doxorubicin was used as a positive control. Each sample was tested in triplicate.
(§3) To evaluate the selectivity of the tested compound(s) toward cancer cells over normal cells, the Selectivity Index (SI) was calculated using the following formula:SI = IC50 (normal cells)/IC50 (cancer cells)
(§4) An SI value greater than 2 was considered to indicate selective cytotoxicity, while values below 2 were interpreted as non-selective. Higher SI values reflect greater therapeutic potential due to reduced toxicity toward normal cells.

[2] = test system: A549 cells; experiment: Total oxidative status (TOS), A549; details: A549, IC50 concentration of compound, 48 h; H2O2 250 µM positive control; mean ± SD, n = 3
Protocol: (§5) TOS were evaluated using a commercially available kit (Rel Assay Diagnostics®, Gaziantep, Turkey) according to the manufacturer’s instructions. […] The TOS assay quantifies oxidizing agents based on their ability to convert an iron (II) ion chelator complex to iron (III) ions. The results were calibrated against hydrogen peroxide (H2O2, 250 µM) as a positive control for 48 h and expressed as µmol H2O2 equivalents per liter. The analysis was performed in three independent biological replicates (n = 3).

[3] = test system: A549 cells; experiment: LDH leakage assay, A549; details: A549, IC50 concentration of compound, 48 h; H2O2 positive control; mean ± SD, n = 3
Protocol: (§6) One hundred microliters of culture medium was transferred to a new 96-well plate. One hundred microliters of LDH reaction solution was added to each well, and absorbance was measured at 490 nm using an ELISA plate reader (BMG Labtech, Ortenberg, Germany) after 30 min.

[4] = test system: A549 cells; experiment: Intracellular GSH/GSSG ratio, A549; details: A549, IC50 concentration of compound, 48 h; H2O2 positive control; mean ± SD, n = 3
Protocol: (§7) Intracellular reduced (GSH) and oxidized (GSSG) glutathione levels were measured using the GSH/GSSG Ratio Detection Assay Kit (Cayman Chemical, Ann Arbor, MI, USA, Cat. No: 703002) according to the manufacturer’s protocol. […] After treatment, cells were washed with cold PBS and lysed with MES buffer provided in the kit.
(§8) To prevent oxidation of GSH to GSSG during processing, samples were deproteinized using the supplied metaphosphoric acid solution and neutralized accordingly. Total glutathione and GSSG levels were measured separately by adding the appropriate buffers and reagents to the wells of a 96-well plate, followed by the addition of DTNB recycling reagent and glutathione reductase. Absorbance was read at 405 nm using a microplate reader (BMG Labtech, Germany). The amount of GSH was calculated by subtracting 2 × GSSG from the total glutathione, and the GSH/GSSG ratio was used to assess intracellular redox status.

[5] = test system: MCF-7 cells; experiment: MTT cell viability assay, MCF-7; details: for IC50: Homo sapiens, MCF7, MTT, 48 h, mean ± SD, n = 3; for MCF-7 Selectivity Index (SI): SI = IC50 (HEK 293)/IC50 (MCF-7)
Protocol: as §1, §2, §3, §4

[6] = test system: A549 cells; experiment: Cell cycle analysis (PI staining, flow cytometry), A549; details: A549, IC50 concentration, 48 h, mean ± SEM, n = 3
Protocol: (§9) Cell cycle distribution was assessed by propidium iodide (PI) staining and flow cytometry. HeLa, MCF-7, and A549 cells were seeded in 6-well plates at a density of 1 × 10^5 cells per well and allowed to attach overnight. […] Following exposure, both adherent and floating cells were collected, washed twice with cold phosphate-buffered saline (PBS, pH 7.4), and fixed overnight in 70% cold ethanol at 4 °C. After fixation, the cells were centrifuged and resuspended in 500 µL of PI/RNase staining solution containing 50 µg/mL PI and 100 µg/mL RNase A (Sigma-Aldrich®, St. Louis, MO, USA), followed by incubation in the dark for 30 min at 37 °C. The stained samples were analyzed using a Muse™ Cell Analyzer (Merck, Millipore, Germany) equipped with a 488 nm excitation laser and a 617 nm emission filter. A minimum of 10,000 events per sample were acquired after exclusion of debris and doublets via FSC-A vs. FSC-H gating. The DNA content histograms were generated automatically, and cell populations were expressed as percentages of G0/G1, S, and G2/M phases using the Muse™ Cell Cycle Analysis Software 1.5.0.0. All assays were conducted in triplicate biological repeats (n = 3), and results were reported as mean ± SEM.

[7] = test system: HEK 293 cells; experiment: MTT cell viability assay, non-cancerous HEK 293; details: Homo sapiens, HEK293, 48 h, mean ± SD, n = 3
Protocol: as §1
The cytotoxic effect was determined by the MTT (3-(4,5-dimethyl-2-thiazolyl)-2,5-diphenyl-2H-tetrazolium bromide) cell viability assay. Cells were seeded at an initial concentration of 1 × 10^5 cells/mL in 96-well microplates. Cells were then treated with different concentrations (0.5, 5, 10, 25, 50, 100 and 200 µM) of the novel synthesized compounds for 48 h. After the incubation period, the formed formazan crystals were dissolved in dimethyl sulfoxide (DMSO), and the optical density (OD) of the compounds was measured at 570 nm using a spectrophotometer (BMG Labtech, Ortenberg, Germany). Cytotoxicity was expressed as an increase in the mean percentage of cytotoxicity relative to the unexposed control ± standard deviation (SD). […] Control values were set at 0% cytotoxicity. IC50 was calculated by fitting the data to a sigmoidal curve using a four-parameter logistic model and was presented as an average of three independent measurements. […] Each sample was tested in triplicate.

[8] = test system: HeLa cells; experiment: MTT cell viability assay, HeLa; details: for IC50: Homo sapiens, HeLa, MTT, 48 h, mean ± SD, n = 3; for HeLa Selectivity Index (SI): SI = IC50 (HEK 293)/IC50 (HeLa)
Protocol: as §1, §2, §3, §4

[9] = test system: HeLa cells; experiment: Intracellular GSH/GSSG ratio, HeLa; details: IC50 concentration of compound, 48 h, H2O2 positive control, mean ± SD, n = 3
Protocol: as §7, §8

[10] = test system: HeLa cells; experiment: LDH leakage assay, HeLa; details: IC50 concentration of compound, 48 h, H2O2 positive control, mean ± SD, n = 3
Protocol: as §6

[11] = test system: HeLa cells; experiment: Total oxidative status (TOS), HeLa; details: IC50 concentration of compound, 48 h, H2O2 250 µM positive control, mean ± SD, n = 3
Protocol: as §5

[12] = test system: HeLa cells; experiment: Cell cycle analysis (PI staining, flow cytometry), HeLa; details: IC50 concentration, 48 h, mean ± SEM, n = 3
Protocol: as §9

IC50 [1] [µM] | IC50 [5] [µM] | IC50 [8] [µM] | SMILES | A549 Selectivity Index (SI) [1] | TOS [2] | LDH [3] | GSH/GSSG [4] | MCF-7 Selectivity Index (SI) [5] | cells in G0/G1 phase [6] [%] | cells in G2/M phase [6] [%] | cells in S phase [6] [%] | IC50 [7] [µM] | HeLa Selectivity Index (SI) [8] | GSH/GSSG [9] | LDH [10] | TOS [11] | cells in G0/G1 phase [12] [%] | cells in G2/M phase [12] [%]
29.5 ± 1.7 | 41.3 ± 2.4 | 31.6 ± 1.82 | O=c1[nH]c2cc(Cl)c(Cl)cc2[nH]1 [Compound 1, 5,6-Dichloro-1,3-dihydro-2H-benzimidazol-2-one] | 2.03 | 6.1 ± 0.4 µmol H2O2 eq/L and 6.1 ± 0.4 ^a,b µmol H2O2 eq/L | 19.8 ± 1.7 µU/mL and 19.8 ± 1.7 ^a,b µU/mL | 13.5 ± 1.3 nmol/mg Protein and 13.5 ± 1.3 ^a,b nmol/mg Protein | 1.46 | 57.2 ± 1.9 | 20.1 ± 1.5 | 22.7 ± 1.5 | 60.1 ± 3.47 | 1.9 | – | – | – | – | –
15.5 ± 0.89 | 21.9 ± 1.26 | 12.8 ± 0.73 | O=C(Cn1c(=O)n(CC(=O)NNC(=O)c2cc3cc(Cl)cc(Cl)c3oc2=O)c2cc(Cl)c(Cl)cc21)NNC(=O)c1cc2cc(Cl)cc(Cl)c2oc1=O [Compound 12d, N′,N′′′ -(2,2′-(5,6-dichloro-2-oxo-1H-benzo[d]imidazole-1,3(2H)-diyl)bis(acetyl))bis(6,8-Dichloro-2-oxo-2H-chromene-3-carbohydrazide)] | 2.01 | 7.9 ± 0.6 µmol H2O2 eq/L and 7.9 ± 0.6 ^a,b µmol H2O2 eq/L | 27.3 ± 2.2 µU/mL and 27.3 ± 2.2 ^a,b µU/mL | 10.1 ± 0.9 nmol/mg Protein and 10.1 ± 0.9 ^a,b nmol/mg Protein | 1.42 | 62.1 ± 2.1 | 19.0 ± 1.5 | 18.9 ± 1.4 | 31.2 ± 1.8 | 2.4 | 9.7 ± 1.0 | 29.7 ± 2.4 µU/mL and 29.7 ± 2.4 ^a,b µU/mL | 8.4 ± 0.6 µmol H2O2 eq/L and 8.4 ± 0.6 ^a,b µmol H2O2 eq/L | 40.1 ± 2.0 | 36.4 ± 1.8
